Consider 5 compounds from paper PMC8041433 (Environmental Health Perspectives, 2021).

Test [1] concerns the target T1, recombinant human AChE (Homo sapiens, UniProt P22303). The test can be described thus: biochemical. It counts as biochemical. The settings on record: for AC50: AC50 (uM).
The target in test [2] is T1, recombinant human AChE. The test can be described thus: biochemical. The settings on record: for IC50: potency (IC50), Enzyme.
The target of test [3] is AChE in neural stem cell spheroids (Homo sapiens, UniProt P22303). In words: cell-based. The settings on record: for IC50: potency (IC50).
Chain of AChE in neural stem cell spheroids (P22303 32-614): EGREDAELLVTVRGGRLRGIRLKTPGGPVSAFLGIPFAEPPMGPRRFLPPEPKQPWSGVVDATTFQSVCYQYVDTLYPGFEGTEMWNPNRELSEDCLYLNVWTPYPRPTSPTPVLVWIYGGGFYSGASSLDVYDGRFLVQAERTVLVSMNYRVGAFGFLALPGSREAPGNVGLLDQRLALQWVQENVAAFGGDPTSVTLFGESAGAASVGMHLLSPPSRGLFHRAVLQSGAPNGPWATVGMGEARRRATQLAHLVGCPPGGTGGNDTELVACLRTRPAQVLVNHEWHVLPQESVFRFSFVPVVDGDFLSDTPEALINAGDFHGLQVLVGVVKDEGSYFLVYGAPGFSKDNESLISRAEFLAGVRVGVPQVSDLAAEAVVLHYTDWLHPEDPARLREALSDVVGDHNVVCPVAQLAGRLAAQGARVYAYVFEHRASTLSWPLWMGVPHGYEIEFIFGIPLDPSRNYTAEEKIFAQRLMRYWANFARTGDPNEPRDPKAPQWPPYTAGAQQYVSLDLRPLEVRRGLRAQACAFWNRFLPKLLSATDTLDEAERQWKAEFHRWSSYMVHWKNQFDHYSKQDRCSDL
The target in test [4] is AChE in neural stem cells (Homo sapiens, UniProt P22303). The test can be described thus: cell-based.
Chain of AChE in neural stem cells (P22303 32-614): as above
For test [5], the target named is T1, recombinant human AChE.
The target in test [6] is T1, recombinant human AChE. The test can be described thus: biochemical.
For a further test, the target named is AChE in SH-SY5Y cells (Homo sapiens, UniProt P22303). In words: cell-based.
Chain of AChE in SH-SY5Y cells (P22303 32-614): as above
Test [7] has as its target T1, recombinant human AChE. In words: biochemical. The settings on record: potency (IC50), Enzyme with microsomes.
For test [8], the target named is AChE in SH-SY5Y spheroids (Homo sapiens, UniProt P22303). In words: cell-based.
Chain of AChE in SH-SY5Y spheroids (P22303 32-614): as above
[9] abbreviates: Neural stem cell spheroid (24 h).
Where [10] appears, read: Neural stem cell spheroid (48 h).
Where [11] appears, read: potency (IC50), SH-SY5Y cells monolayer.
Setting [12] is: potency (IC50), SH-SY5Y spheroids (24 h).
[13] abbreviates: potency (IC50), SH-SY5Y spheroids (48 h).

Where “and” joins values, the source holds several entries; their conditions need not be identical. Equal entries are not always repeated. Structures can show the parent of a compound that is named as a salt. Where two headings read alike, the source gives them in different places.
Throughout, for IR or R: key: Reversible (R); Irreversible (IR); ND, not detected in enzyme-based AChE inhibition assay from current study.

T1 sequence (P22303 32-614): as above

What is called IC50 is the concentration needed to halve the response being measured. Consider `CNC(=O)ON=C(C)SC` [Methomyl], for which the “IR or R” value on recombinant human AChE [1] is “R”. The “CC-v2 (curve classes)” value on recombinant human AChE [2], at recombinant human AChE [5] and on AChE in SH-SY5Y cells was -1.1 in each case. For the same compound, the values for the Efficacy at recombinant human AChE [2] and on recombinant human AChE [5] were -92.651 and -96.277, respectively. In addition, the IC50 at recombinant human AChE [2] is 1.83 ± 0.12 µM; in test [3] (setting [9]), 6.27 ± 2.23 µM; in test [3] (setting [10]), 9.75 µM; in test [4], 7.99 ± 1.49 µM; at recombinant human AChE [6], 3.83 ± 0.53 µM; on AChE in SH-SY5Y cells (IC50 (uM)) it was 1.59 µM and 2 µM. For the same compound, the IC50 was found to be 4.11 ± 0.27 µM against AChE in SH-SY5Y cells (setting [11]), 3.18 ± 0.66 µM at recombinant human AChE [7], 6.41 ± 8.14 µM in test [8] (setting [12]) and 3.81 ± 0.25 µM in [8] (setting [13]).
For orientation: AC50 means the midpoint of the concentration-response curve, whichever way the signal moves. For the compound `Cc1nc(N(C)C)nc(OC(=O)N(C)C)c1C` [Pirimicarb], the “IR or R” value on recombinant human AChE [1] is listed as “R”. The AC50 at recombinant human AChE [1] (activity_5) is 49.8 µM and 62.7 µM and 22.2 µM; on recombinant human AChE [1] (activity_10) it was 19.8 µM and 44.4 µM and 49.8 µM; at recombinant human AChE [1] (activity_60), 19.8 µM and 5.59 µM and 9.93 µM. The “CC-v2 (curve classes)” value at recombinant human AChE [2] is -1.1; on recombinant human AChE [5], -2.2; on AChE in SH-SY5Y cells, -1.1. In addition, the Efficacy is given as -85.325 on recombinant human AChE [2] and -73.016 at recombinant human AChE [5]. For the same compound, the IC50 was found to be 12.7 ± 2.36 µM on recombinant human AChE [2]; 1.4 ± 0.16 µM in test [3] (setting [9]); 2.47 µM in test [3] (setting [10]); 2.84 ± 0.65 µM in test [4]; 8.21 ± 0.56 µM on recombinant human AChE [6]; 11.2 µM at AChE in SH-SY5Y cells (IC50 (uM)). Besides, the IC50 was 7.42 ± 2.77 µM against AChE in SH-SY5Y cells (setting [11]); 8.53 ± 0.55 µM at recombinant human AChE [7]; 7.09 ± 4.92 µM in [8] (setting [12]); 15.2 ± 0.99 µM in test [8] (read-out: potency (IC50), SH-SY5Y spheroids (48 h)).
Turning to `CC(=O)Oc1cc(C(C)C)c(OCCN(C)C)cc1C` [Moxisylyte hydrochloride, reference compound], the “IR or R” value at recombinant human AChE [1] is on record as “R”. The AC50 at recombinant human AChE [1] (activity_5) is 19.3 µM and 17.2 µM and 21.7 µM; at recombinant human AChE [1] (activity_10), 19.3 µM and 24.3 µM and 21.7 µM; on recombinant human AChE [1] (activity_60), 17.2 µM and 24.3 µM and 21.7 µM. The “CC-v2 (curve classes)” value is -2.2 at recombinant human AChE [2]; -2.4 on recombinant human AChE [5]; -2.1 and -1.1 on AChE in SH-SY5Y cells. In addition, the Efficacy at recombinant human AChE [2] is -54.154; at recombinant human AChE [5] it was -32.666. For the same compound, the IC50 at recombinant human AChE [2] stood at 21.9 µM; in [3] (setting [10]), 24.3 µM; in test [4], 19.3 µM; at recombinant human AChE [6] it was 20.1 ± 1.36 µM; at AChE in SH-SY5Y cells (IC50 (uM)), 13.8 µM; on AChE in SH-SY5Y cells (setting [11]) it was 20.1 µM. The IC50 on recombinant human AChE [7] worked out at 19.3 µM; in test [8] (setting [12]) it was 14.3 µM; in [8] (setting [13]), 20.9 µM. In test [3], the “potency (IC50), Neural stem cell spheroid (24 h)” value was “Inactive”.
Consider `CCOP(=S)(OCC)OP(=S)(OCC)OCC` [Sulfotepp], for which, on recombinant human AChE [1] (activity_60), the AC50 was 55.9 µM and 70.3 µM. The figures for the “CC-v2 (curve classes)” value at recombinant human AChE [2], on recombinant human AChE [5] and on AChE in SH-SY5Y cells were -2.1, -1.1 and -1.1, respectively. Further, the IC50 at recombinant human AChE [2] is 9.97 ± 1.14 µM; in [3] (setting [9]), 0.06 ± 0.01 µM; in [3] (setting [10]) it was 0.1 ± 0.02 µM; in test [4], 1.25 ± 0.14 µM; on recombinant human AChE [6], 44.4 µM; at AChE in SH-SY5Y cells (IC50 (uM)) it was 5.02 µM and 8.18 µM and 2.52 µM and 5.16 µM and 2.24 µM and 2.59 µM. Also, the IC50 on AChE in SH-SY5Y cells (setting [11]) was determined as 0.96 ± 0.13 µM; at recombinant human AChE [7] it was 7.89 µM; in test [8] (setting [12]), 15.3 ± 7.82 µM; in test [8] (setting [13]), 4.12 ± 0.28 µM.
Turning to `CC/N=c1\cc2oc3cc(NCC)c(C)cc3c(-c3ccccc3C(=O)OCC)c-2cc1C` [Rhodamine 6G], the “IR or R” value on recombinant human AChE [1] was “R”. For the same compound, the AC50 is 39.5 µM and 35.2 µM and 28 µM at recombinant human AChE [1] (activity_5); 39.5 µM and 49.8 µM and 35.2 µM on recombinant human AChE [1] (activity_10); 25 µM and 35.2 µM on recombinant human AChE [1] (activity_60). For the same compound, the “CC-v2 (curve classes)” value is -1.1 on recombinant human AChE [2]; -2.2 and -2.1 at recombinant human AChE [5]; -1.1 at AChE in SH-SY5Y cells. For the same compound, the IC50 on recombinant human AChE [2] is 22.8 µM; in [3] (setting [9]), 29.7 µM; in test [3] (setting [10]) it was 40.3 µM; in test [4], 30.5 µM; at recombinant human AChE [6], 41.2 ± 2.79 µM; at AChE in SH-SY5Y cells (IC50 (uM)), 8.94 µM and 6.31 µM and 7.1 µM and 7.07 µM and 7.96 µM and 8.91 µM. Further, the IC50 amounted to 12.4 µM on AChE in SH-SY5Y cells (setting [11]), 41.3 µM on recombinant human AChE [7], 15.8 µM in test [8] (setting [12]) and 9.25 µM in test [8] (setting [13]).
